Data published in patent publication US10710978B2, “STK4 inhibitors for treatment of hematologic malignancies” (Dana-Farber Cancer Institute, Inc., priority 2015, dated 2020).

Target: STK4 (MST1) (Homo sapiens (Human), UniProt Q13043)
Assay: Z-lyte biochemical IC50 assay (Invitrogen)
Details: ATP concentration matched the Km
Experimental: STK4 (MST1), STK3 (MST2); STK24 (MST3) and MST4 Assays
Biochemical IC50s were measured at Invitrogen using Z-lyte technology. Briefly, for STK4, the 2×STK4 (MST1)/Ser/Thr 07 mixture was prepared in 50 mM HEPES pH 7.5, 0.01% BRIJ35, 10 mM MgCl2, 1 mM EGTA. The final 10 μL Kinase Reaction consisted of 6.25-160 ng STK4 (MST1) and 2 μM Ser/Thr 07 in 50 mM HEPES pH 7.5, 0.01% BRIJ-35, 10 mM MgCl2, 1 mM EGTA. After the 1 hour Kinase Reaction incubation, 5 μL of a 1:100000 dilution of Development Reagent A was added. Compounds were screened in a 10 point titration with 3-fold serial dilutions starting at a concentration of 10 μM. The biochemical IC50s against other STK family members were measured similarly. The ATP concentration used matched the Km for each kinase.

Sequence of STK4 (MST1) (Q13043 whole entry): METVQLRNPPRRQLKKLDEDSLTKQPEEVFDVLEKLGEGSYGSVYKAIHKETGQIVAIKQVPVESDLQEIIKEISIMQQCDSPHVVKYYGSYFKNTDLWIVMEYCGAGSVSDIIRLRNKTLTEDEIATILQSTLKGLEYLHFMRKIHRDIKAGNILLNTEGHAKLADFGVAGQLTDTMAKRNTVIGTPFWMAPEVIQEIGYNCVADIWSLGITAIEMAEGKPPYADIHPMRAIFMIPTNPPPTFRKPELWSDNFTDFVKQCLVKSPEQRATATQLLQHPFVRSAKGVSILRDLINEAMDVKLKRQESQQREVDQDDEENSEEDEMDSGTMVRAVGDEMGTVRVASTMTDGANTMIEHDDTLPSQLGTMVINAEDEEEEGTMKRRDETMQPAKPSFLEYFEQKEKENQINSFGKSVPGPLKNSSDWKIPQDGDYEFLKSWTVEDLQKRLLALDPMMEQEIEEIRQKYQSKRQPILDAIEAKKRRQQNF

| Structure (SMILES) | IC50 [nM] |
| --- | --- |
| CCOc1cc(S(=O)(=O)N(C)C2CC2)ccc1-c1cnc(N)c(-c2ccc3c(c2)CCNC3=O)c1 [Compound I-47, 4-(6-amino-5-(1-oxo-1,2,3,4-tetrahydroisoquinolin-6-yl)pyridin-3-yl)-N-cyclopropyl-3-ethoxy-N-methylbenzenesulfonamide] | < 40 |
| COc1cc(S(=O)(=O)N(C)C2CCCCC2)ccc1-c1cnc(N)c(-c2ccc3c(c2)CCNC3=O)c1 [Compound I-52, 4-(6-amino-5-(1-oxo-1,2,3,4-tetrahydroisoquinolin-6-yl)pyridin-3-yl)-N-cyclohexyl-3-methoxy-N-methylbenzenesulfonamide] | 40 to 200 |
| CN1CCc2cc(-c3cc(-c4ccc(S(=O)(=O)N(C)C5CC5)cc4F)cnc3N)ccc2C1=O [Compound I-62, 4-(6-amino-5-(2-methyl-1-oxo-1,2,3,4-tetrahydroisoquinolin-6-yl)pyridin-3-yl)-N-cyclopropyl-3-fluoro-N-methylbenzenesulfonamide] | < 40 |
| Nc1ncc(-c2cccc(S(N)(=O)=O)c2)cc1-c1ccc2c(c1)CCNC2=O [Compound I-71, 3-(6-amino-5-(1-oxo-1,2,3,4-tetrahydroisoquinolin-6-yl)pyridin-3-yl)benzenesulfonamide] | 200 to 900 |
| NC(=O)c1ccc(-c2cc(-c3cc([N+](=O)[O-])ccc3F)cnc2N)cc1Cl [Compound I-30, 4-(2-amino-5-(2-fluoro-5-nitrophenyl)pyridin-3-yl)-2-chlorobenzamide] | 200 to 900 |
| Nc1ncc(-c2cc3scnc3cc2F)cc1-c1ccc2c(c1)CCNC2=O [Compound I-73, 6-(2-amino-5-(5-fluorobenzo[d]thiazol-6-yl)pyridin-3-yl)-3,4-dihydroisoquinolin-1(2H)-one] | 40 to 200 |
| Nc1ncc(-c2scnc2Cl)cc1-c1ccc2c(c1)CCNC2=O [Compound I-77, 6-(2-amino-5-(4-chlorothiazol-5-yl)pyridin-3-yl)-3,4-dihydroisoquinolin-1(2H)-one] | 40 to 200 |
| Nc1ncc(-c2cccc3ncsc23)cc1-c1ccc2c(=O)[nH]cnc2c1 [Compound I-64, 7-(2-amino-5-(benzo[d]thiazol-7-yl)pyridin-3-yl)quinazolin-4(3H)-one] | 40 to 200 |
| Nc1ncc(-c2ccc(NS(=O)(=O)C3CC3)cc2OCc2ccccc2)cc1-c1ccc2c(c1)CCNC2=O [Compound I-66, N-(4-(6-amino-5-(1-oxo-1,2,3,4-tetrahydroisoquinolin-6-yl)pyridin-3-yl)-3-(benzyloxy)phenyl) cyclopropanesulfonamide] | 40 to 200 |
| Nc1ncc(-c2cc([N+](=O)[O-])cc(F)c2F)cc1-c1ccc2c(c1)CCNC2=O [Compound I-18, 6-(2-amino-5-(2,3-difluoro-5-nitrophenyl)pyridin-3-yl)-3,4-dihydroisoquinolin-1(2H)-one] | 40 to 200 |
| COc1cc(S(=O)(=O)NC2CC2)ccc1-c1cnc(N)c(-c2ccc3c(c2)CCNC3=O)c1 [Compound I-49, 4-(6-amino-5-(1-oxo-1,2,3,4-tetrahydroisoquinolin-6-yl)pyridin-3-yl)-N-cyclopropyl-3-methoxybenzenesulfonamide] | < 40 |
| COc1cc(-c2nccs2)ccc1-c1cnc(N)c(-c2ccc3c(c2)CCNC3=O)c1 [Compound I-60, 6-(2-amino-5-(2-methoxy-4-(thiazol-2-yl)phenyl)pyridin-3-yl)-3,4-dihydroisoquinolin-1(2H)-one] | 40 to 200 |
| CC(C)Oc1cc(NS(=O)(=O)C2CC2)ccc1-c1cnc(N)c(-c2ccc3c(c2)CCNC3=O)c1 [Compound I-67, N-(4-(6-amino-5-(1-oxo-1,2,3,4-tetrahydroisoquinolin-6-yl)pyridin-3-yl)-3-isopropoxyphenyl) cyclopropanesulfonamide] | < 40 |
| N#Cc1cc(-c2cc(-c3cc([N+](=O)[O-])ccc3F)cnc2N)ccc1O [Compound I-11, 5-(2-amino-5-(2-fluoro-5-nitrophenyl)pyridin-3-yl)-2-hydroxybenzonitrile] | > 900 |
| Cc1cc(N2CCOCC2)cc2[nH]c(-c3c(NC[C@@H](O)c4cccc(Cl)c4)cc[nH]c3=O)nc12 [BMS536924, reference compound] | 40 to 200 |
